Measured values: article PMC5218480 (PLoS ONE, 2017)

System: MV-4-11 cells
Assay: Gene expression microarray analysis (Affymetrix PrimeView) and GSEA
Assay type: cell-based, human
Design: RFU PODN (11730768_x_at) / Fold change /veh PODN (11730768_x_at) / RFU LINC00158 (11744669_a_at) / Fold change /veh LINC00158 (11744669_a_at) / RFU DUSP10 (11751237_a_at) / Fold change /veh DUSP10 (11751237_a_at) / RFU ID3 (11757404_x_at) / Fold change /veh ID3 (11757404_x_at) / RFU PLEKHG5 (11737974_s_at) / Fold change /veh PLEKHG5 (11737974_s_at) / RFU LRRC4B (11730491_at) / Fold change /veh LRRC4B (11730491_at) / RFU GIMAP4 (11747438_a_at) / Fold change /veh GIMAP4 (11747438_a_at) / RFU KRT8 (11758183_x_at) / Fold change /veh KRT8 (11758183_x_at) / RFU CNN1 (11734310_a_at) / Fold change /veh CNN1 (11734310_a_at) / RFU VPS37D (11726825_at) / Fold change /veh VPS37D (11726825_at) / RFU C10orf10 (11716522_x_at) / Fold change /veh C10orf10 (11716522_x_at) / RFU KIR2DL2 /// KIR2DL4 /// KIR2DL5A /// KIR2DL5B /// KIR2DS1 /// KIR2DS2 /// KIR2DS3 /// KIR2DS4 /// KIR3DL3 /// KIR3DL3 /// KIR3DS1 (11738374_at) / Fold change /veh KIR2DL2 /// KIR2DL4 /// KIR2DL5A /// KIR2DL5B /// KIR2DS1 /// KIR2DS2 /// KIR2DS3 /// KIR2DS4 /// KIR3DL3 /// KIR3DL3 /// KIR3DS1 (11738374_at) / RFU C1QL1 (11718748_at) / Fold change /veh C1QL1 (11718748_at) / RFU TMPRSS4 (11747572_a_at) / Fold change /veh TMPRSS4 (11747572_a_at) / RFU HAMP (11756126_x_at) / Fold change /veh HAMP (11756126_x_at) / RFU RNFT2 (11725882_a_at) / Fold change /veh RNFT2 (11725882_a_at) / RFU NR4A2 (11747474_a_at) / Fold change /veh NR4A2 (11747474_a_at) / RFU ABCC12 (11746883_a_at) / Fold change /veh ABCC12 (11746883_a_at) / RFU TMEM136 (11760407_x_at) / Fold change /veh TMEM136 (11760407_x_at) / RFU CLDN22 /// WWC2 (11732394_at) / Fold change /veh CLDN22 /// WWC2 (11732394_at) / RFU HLA-DPB1 (11760878_x_at) / Fold change /veh HLA-DPB1 (11760878_x_at) / RFU SPINT1 (11716480_a_at) / Fold change /veh SPINT1 (11716480_a_at) / RFU GAP43 (11754022_s_at) / Fold change /veh GAP43 (11754022_s_at) / RFU A4GNT (11735810_at) / Fold change /veh A4GNT (11735810_at) / RFU PRB3 (11715151_x_at) / Fold change /veh PRB3 (11715151_x_at) / RFU TUBB4B (11761932_at) / Fold change /veh TUBB4B (11761932_at) / RFU CAPN14 (11732068_a_at) / Fold change /veh CAPN14 (11732068_a_at) / RFU TMCC2 (11721928_a_at) / Fold change /veh TMCC2 (11721928_a_at) / RFU IRGQ (11745062_a_at) / Fold change /veh IRGQ (11745062_a_at) / RFU FAM174B (11720279_a_at) / Fold change /veh FAM174B (11720279_a_at) / RFU TMPRSS4 (11748680_a_at) / Fold change /veh TMPRSS4 (11748680_a_at) / RFU FAM212B (11763350_a_at) / Fold change /veh FAM212B (11763350_a_at) / RFU PLEKHG5 (11743358_a_at) / Fold change /veh PLEKHG5 (11743358_a_at) / RFU ZSCAN30 (11745921_a_at) / Fold change /veh ZSCAN30 (11745921_a_at) / RFU CMKLR1 (11741424_a_at) / Fold change /veh CMKLR1 (11741424_a_at) / RFU LOC101060620 /// MAPK8IP1 (11723275_at) / Fold change /veh LOC101060620 /// MAPK8IP1 (11723275_at) / RFU SPTSSB (11747773_x_at) / Fold change /veh SPTSSB (11747773_x_at) / RFU PRSS12 (11739890_at) / Fold change /veh PRSS12 (11739890_at) / RFU BIN1 (11741810_x_at) / Fold change /veh BIN1 (11741810_x_at) / RFU WNT11 (11732464_a_at) / Fold change /veh WNT11 (11732464_a_at) / RFU C10orf10 (11716521_a_at) / Fold change /veh C10orf10 (11716521_a_at) / RFU C5orf56 (11738089_at) / Fold change /veh C5orf56 (11738089_at) / RFU CYB561 (11721691_x_at) / Fold change /veh CYB561 (11721691_x_at) / RFU ANKRD19P (11752326_a_at) / Fold change /veh ANKRD19P (11752326_a_at) / RFU OR2T12 /// OR2T33 /// OR2T8 (11738714_s_at) / Fold change /veh OR2T12 /// OR2T33 /// OR2T8 (11738714_s_at) / RFU VCAN (11748164_a_at) / Fold change /veh VCAN (11748164_a_at) / RFU JSRP1 (11732532_at) / Fold change /veh JSRP1 (11732532_at) / RFU KRTAP10-11 (11738290_x_at) / Fold change /veh KRTAP10-11 (11738290_x_at) / RFU MYO3A (11730013_a_at) / Fold change /veh MYO3A (11730013_a_at) / RFU EBF3 (11725865_a_at) / Fold change /veh EBF3 (11725865_a_at) / RFU CAMK2N1 (11719241_x_at) / Fold change /veh CAMK2N1 (11719241_x_at) / RFU C5orf56 (11738088_a_at) / Fold change /veh C5orf56 (11738088_a_at) / RFU OLFML3 (11715873_a_at) / Fold change /veh OLFML3 (11715873_a_at) / RFU LOC100653217 /// NTM (11731650_a_at) / Fold change /veh LOC100653217 /// NTM (11731650_a_at) / RFU MAPK11 (11762145_a_at) / Fold change /veh MAPK11 (11762145_a_at) / RFU FIZ1 (11724087_x_at) / Fold change /veh FIZ1 (11724087_x_at) / RFU OASL (11726364_x_at) / Fold change /veh OASL (11726364_x_at) / RFU SOX15 (11748057_x_at) / Fold change /veh SOX15 (11748057_x_at) / RFU CD79A (11719716_a_at) / Fold change /veh CD79A (11719716_a_at) / RFU HIST1H1D (11736915_at) / Fold change /veh HIST1H1D (11736915_at) / RFU CASKIN2 (11723855_a_at) / Fold change /veh CASKIN2 (11723855_a_at) / RFU LOC730098 (11760151_x_at) / Fold change /veh LOC730098 (11760151_x_at) / RFU OR4N2 (11742367_at) / Fold change /veh OR4N2 (11742367_at) / RFU PRRT2 (11749266_a_at) / Fold change /veh PRRT2 (11749266_a_at) / RFU SNX32 (11753110_a_at) / Fold change /veh SNX32 (11753110_a_at) / RFU CDHR5 (11726645_a_at) / Fold change /veh CDHR5 (11726645_a_at) / RFU RCAN1 (11760418_a_at) / Fold change /veh RCAN1 (11760418_a_at) / RFU FAM167A (11723789_a_at) / Fold change /veh FAM167A (11723789_a_at) / RFU FAM26E (11764081_at) / Fold change /veh FAM26E (11764081_at) / RFU ISYNA1 (11749810_s_at) / Fold change /veh ISYNA1 (11749810_s_at) / RFU ACY1 (11761880_at) / Fold change /veh ACY1 (11761880_at) / RFU 11764098_at / Fold change /veh 11764098_at / RFU SAMD14 (11745864_x_at) / Fold change /veh SAMD14 (11745864_x_at) / RFU NPB (11741838_a_at) / Fold change /veh NPB (11741838_a_at) / RFU TMPRSS6 (11731388_a_at) / Fold change /veh TMPRSS6 (11731388_a_at) / RFU KRTAP10-2 (11738614_at) / Fold change /veh KRTAP10-2 (11738614_at) / RFU ARHGAP8 /// PRR5-ARHGAP8 (11727945_x_at) / Fold change /veh ARHGAP8 /// PRR5-ARHGAP8 (11727945_x_at) / RFU KRTAP5-7 /// NADSYN1 (11734609_at) / Fold change /veh KRTAP5-7 /// NADSYN1 (11734609_at) / RFU RASL12 (11751679_a_at) / Fold change /veh RASL12 (11751679_a_at) / RFU CDKN2B (11736163_a_at) / Fold change /veh CDKN2B (11736163_a_at) / RFU PRF1 (11729649_at) / Fold change /veh PRF1 (11729649_at) / RFU, ZNF638 /// ZNF638-IT1 / Fold change vs veh, ZNF638 /// ZNF638-IT1 / RFU, PANK3 / Fold change vs veh, PANK3 / RFU, SH3YL1 / Fold change vs veh, SH3YL1 / RFU, ZEB2 / Fold change vs veh, ZEB2 / RFU, NRIP1 / Fold change vs veh, NRIP1 / RFU, PTTG1IP / Fold change vs veh, PTTG1IP / RFU, CAPN2 / Fold change vs veh, CAPN2 / RFU, MED14 / Fold change vs veh, MED14 / RFU, SNORA58 / Fold change vs veh, SNORA58 / RFU, C1orf63 / Fold change vs veh, C1orf63 / RFU, LRRFIP1 / Fold change vs veh, LRRFIP1 / RFU, NDUFAF7 / Fold change vs veh, NDUFAF7 / RFU, SLC12A2 / Fold change vs veh, SLC12A2 / RFU, IBTK / Fold change vs veh, IBTK / RFU, ESF1 / Fold change vs veh, ESF1 / Fold change vs veh, TMEM50B / RFU, TAOK1 / Fold change vs veh, TAOK1 / RFU, ACBD3 / Fold change vs veh, ACBD3 / RFU, TMA16 / Fold change vs veh, TMA16 / RFU, RWDD3 / Fold change vs veh, RWDD3 / RFU, BCAT1 / Fold change vs veh, BCAT1 / RFU, EDEM3 / Fold change vs veh, EDEM3 / RFU, TMEM33 / Fold change vs veh, TMEM33 / RFU, WDR75 / Fold change vs veh, WDR75 / RFU, AHCTF1 / Fold change vs veh, AHCTF1 / RFU, TFRC / Fold change vs veh, TFRC / RFU, ZDHHC17 / Fold change vs veh, ZDHHC17 / RFU, NOM1 / Fold change vs veh, NOM1 / RFU, ARL8B / Fold change vs veh, ARL8B / RFU, ZBTB11 / Fold change vs veh, ZBTB11 / RFU, TAMM41 / Fold change vs veh, TAMM41 / RFU, KIAA1704 /// LOC100996395 / Fold change vs veh, KIAA1704 /// LOC100996395 / RFU, ING1 / Fold change vs veh, ING1 / RFU, TRMT61B / Fold change vs veh, TRMT61B / RFU, FUBP3 / Fold change vs veh, FUBP3 / RFU, TP53 / Fold change vs veh, TP53 / RFU, TNKS2 / Fold change vs veh, TNKS2 / RFU, ZFP14 / Fold change vs veh, ZFP14 / RFU, ACTR2 / Fold change vs veh, ACTR2 / RFU, PPP3R1 / Fold change vs veh, PPP3R1 / RFU, PIK3R1 / Fold change vs veh, PIK3R1 / RFU, HNRNPA1 / Fold change vs veh, HNRNPA1 / RFU, RNF170 / Fold change vs veh, RNF170 / RFU, ZNF28 / Fold change vs veh, ZNF28 / RFU, RNGTT / Fold change vs veh, RNGTT / RFU, OGT / Fold change vs veh, OGT / RFU, BRD1 / Fold change vs veh, BRD1 / RFU, MARS / Fold change vs veh, MARS / RFU, ZNF655 / Fold change vs veh, ZNF655 / RFU, FAHD1 / Fold change vs veh, FAHD1 / RFU, BDP1 / Fold change vs veh, BDP1 / RFU, LRRCC1 / Fold change vs veh, LRRCC1 / RFU, ARID1A / Fold change vs veh, ARID1A / RFU, ZNF146 / Fold change vs veh, ZNF146 / RFU, ZNF330 / Fold change vs veh, ZNF330 / RFU, GPN3 / Fold change vs veh, GPN3 / RFU, C9orf123 / Fold change vs veh, C9orf123 / RFU, N4BP2L2 / Fold change vs veh, N4BP2L2 / RFU, ARFIP1 / Fold change vs veh, ARFIP1 / RFU, FAM179B / Fold change vs veh, FAM179B / RFU, BCL10 / Fold change vs veh, BCL10 / RFU, UHRF1BP1L / Fold change vs veh, UHRF1BP1L / RFU, BET1 / Fold change vs veh, BET1 / RFU, CNOT2 / Fold change vs veh, CNOT2 / RFU, ZNF268 / Fold change vs veh, ZNF268 / Fold change vs veh, ZNF507 / RFU, DGCR2 / Fold change vs veh, DGCR2 / RFU, WDSUB1 / Fold change vs veh, WDSUB1 / Fold change vs veh, HSP90B1 /// MIR3652 / RFU, ADSS / Fold change vs veh, ADSS / RFU, GK / Fold change vs veh, GK / RFU, ZNF148 / Fold change vs veh, ZNF148 / RFU, TAF9 / Fold change vs veh, TAF9 / RFU, SLC1A5 / Fold change vs veh, SLC1A5 / RFU, SLMO2 / Fold change vs veh, SLMO2 / RFU, ABCC4 / Fold change vs veh, ABCC4 / RFU, LOC101060439 /// RAP1B / Fold change vs veh, LOC101060439 /// RAP1B / RFU, RFX7 / Fold change vs veh, RFX7 / RFU, GTPBP10 / Fold change vs veh, GTPBP10 / RFU, CNEP1R1 / Fold change vs veh, CNEP1R1 / RFU, BIVM-ERCC5 /// ERCC5 / Fold change vs veh, BIVM-ERCC5 /// ERCC5 / RFU, ILF3 / Fold change vs veh, ILF3 / RFU 11762660_at / Fold change /veh 11762660_at / RFU VCAN (11757783_s_at) / Fold change /veh VCAN (11757783_s_at) / RFU DDX43 (11728927_at) / Fold change /veh DDX43 (11728927_at) / RFU KRT8 (11758188_x_at) / Fold change /veh KRT8 (11758188_x_at) / RFU NKD1 (11759106_at) / Fold change /veh NKD1 (11759106_at) / RFU SRD5A1 (11742802_a_at) / Fold change /veh SRD5A1 (11742802_a_at) / RFU TPSAB1 /// TPSB2 (11721975_s_at) / Fold change /veh TPSAB1 /// TPSB2 (11721975_s_at) / RFU GSTM3 (11746129_a_at) / Fold change /veh GSTM3 (11746129_a_at) / RFU IL23R (11737362_x_at) / Fold change /veh IL23R (11737362_x_at) / RFU TMEM51 (11727254_a_at) / Fold change /veh TMEM51 (11727254_a_at) / RFU PIWIL2 (11732686_x_at) / Fold change /veh PIWIL2 (11732686_x_at) / RFU ORM1 (11744905_x_at) / Fold change /veh ORM1 (11744905_x_at) / RFU CCDC152 (11743942_at) / Fold change /veh CCDC152 (11743942_at) / RFU ECM1 (11717891_a_at) / Fold change /veh ECM1 (11717891_a_at) / RFU IL23R (11748794_a_at) / Fold change /veh IL23R (11748794_a_at) / RFU TNFAIP8L3 (11732012_x_at) / Fold change /veh TNFAIP8L3 (11732012_x_at) / RFU MBOAT4 (11741988_at) / Fold change /veh MBOAT4 (11741988_at) / RFU 11764193_at / Fold change /veh 11764193_at / RFU TMEM53 (11763286_at) / Fold change /veh TMEM53 (11763286_at) / RFU MAGEB2 (11727129_at) / Fold change /veh MAGEB2 (11727129_at) / RFU TMEM200A (11744735_a_at) / Fold change /veh TMEM200A (11744735_a_at) / RFU CCDC152 (11751479_a_at) / Fold change /veh CCDC152 (11751479_a_at) / RFU FAM211A (11726209_a_at) / Fold change /veh FAM211A (11726209_a_at) / RFU RGS16 (11746705_a_at) / Fold change /veh RGS16 (11746705_a_at) / RFU VCAN (11755009_s_at) / Fold change /veh VCAN (11755009_s_at) / RFU RHOB (11743442_s_at) / Fold change /veh RHOB (11743442_s_at) / RFU RGS16 (11720943_a_at) / Fold change /veh RGS16 (11720943_a_at) / RFU RGS16 (11720944_at) / Fold change /veh RGS16 (11720944_at) / RFU, VPS4B / Fold change vs veh, VPS4B / RFU, CREB1 / Fold change vs veh, CREB1 / RFU, DNAJC13 / Fold change vs veh, DNAJC13 / RFU, GNAQ / Fold change vs veh, GNAQ / RFU, CDK5R1 / Fold change vs veh, CDK5R1 / RFU, ZRANB3 / Fold change vs veh, ZRANB3 / RFU, CUL4A / Fold change vs veh, CUL4A / RFU, CCNY / Fold change vs veh, CCNY / RFU, UFL1 / Fold change vs veh, UFL1 / RFU, COG3 / Fold change vs veh, COG3 / RFU, DIAPH2 / Fold change vs veh, DIAPH2 / RFU, SKA2 / Fold change vs veh, SKA2 / RFU, AFF3 / Fold change vs veh, AFF3 / RFU, LMF1 / Fold change vs veh, LMF1 / RFU, IPO11 / Fold change vs veh, IPO11 / RFU, DFFB / Fold change vs veh, DFFB / RFU, FOXP1 / Fold change vs veh, FOXP1 / RFU, CARD8 / Fold change vs veh, CARD8 / RFU, STRN3 / Fold change vs veh, STRN3 / RFU, ADK / Fold change vs veh, ADK / RFU, RASSF2 / Fold change vs veh, RASSF2 / RFU, WIPF1 / Fold change vs veh, WIPF1 / RFU, LARP1B / Fold change vs veh, LARP1B / RFU, RASA1 / Fold change vs veh, RASA1 / RFU, RB1 / Fold change vs veh, RB1 / RFU, PPFIA1 / Fold change vs veh, PPFIA1 / RFU, MAT2A / Fold change vs veh, MAT2A / RFU, CCT5 / Fold change vs veh, CCT5 / RFU, WDR92 / Fold change vs veh, WDR92 / RFU, CUX1 / Fold change vs veh, CUX1 / RFU, TTC7A / Fold change vs veh, TTC7A / RFU, TMEM135 / Fold change vs veh, TMEM135 / RFU, DEPTOR / Fold change vs veh, DEPTOR / RFU, CPM / Fold change vs veh, CPM / RFU, DNAJB6 / Fold change vs veh, DNAJB6 / RFU, CACNA2D3 / Fold change vs veh, CACNA2D3 / RFU, DTX4 / Fold change vs veh, DTX4 / RFU, TFCP2 / Fold change vs veh, TFCP2 / RFU, GMCL1 /// GMCL1P1 / Fold change vs veh, GMCL1 /// GMCL1P1 / RFU, AEBP2 / Fold change vs veh, AEBP2 / RFU, SNHG1 /// SNORD22 /// SNORD25 /// SNORD26 /// SNORD27 /// SNORD28 /// SNORD29 /// SNORD31 / Fold change vs veh, SNHG1 /// SNORD22 /// SNORD25 /// SNORD26 /// SNORD27 /// SNORD28 /// SNORD29 /// SNORD31 / Fold change (Aza/veh), C12orf56 (ProbeSet 11735607_a_at) / Fold change (ACY-1035/veh), C12orf56 (ProbeSet 11735607_a_at) / Fold change (Aza/veh), FGFR1OP (ProbeSet 11751329_s_at) / Fold change (ACY-1035/veh), FGFR1OP (ProbeSet 11751329_s_at) / Fold change (Aza/veh), VPS36 (ProbeSet 11739960_a_at) / Fold change (ACY-1035/veh), VPS36 (ProbeSet 11739960_a_at) / RFU SYPL1 (11715823_x_at) / Fold change /veh SYPL1 (11715823_x_at) / RFU IGFBP7 (11715501_s_at) / Fold change /veh IGFBP7 (11715501_s_at) / RFU REEP3 (11722064_at) / Fold change /veh REEP3 (11722064_at) / RFU IGLL1 (11728026_x_at) / Fold change /veh IGLL1 (11728026_x_at): dose or concentration left out as unconfirmed
Details: ProbeSet 11734937_a_at; LIST B

SMILES: Nc1ccc(-c2cccs2)cc1NC(=O)c1ccc2c(c1)cc(C1CC1)n2CCN1CCOCC1 [ACY-1035]
- Fold change vs veh, CNOT2: 0.83
